Results from PubChem BioAssay AID504313 (Emory University Molecular Libraries Screening Center, 2011).
Activity calls are given as the source filed them. No rule for the calls is given here.

The compounds below were run against X-box-binding protein 1 (Homo sapiens) (UniProt P17861) (assay: XBP1 reporter suppression in cells – counter-screen, dose response (AID 504313;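 also: CHO cells carrying an XBP1 reporter stimulated with tunicamycin; potency is for inhibition of the tunicamycin-induced reporter signal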)). Details: XBP1 reporter cell assay, percent of control.
For `O=C(Nc1ccccc1-c1nc2ccccc2[nH]1)c1sc2ccccc2c1Cl`, the IC50 was > 10 µM (inactive). `O=C(N/N=C/c1ccc(F)cc1)c1c(O)c2ccccc2[nH]c1=O` was tested, and the IC50 was > 10 µM (inactive). `O=C1c2ccccc2C(=O)C1c1nccc2ccccc12` was tested, and the IC50 was “inactive”. Work on `OCCCNc1cc(-c2ccnc(Nc3cccc(Cl)c3)n2)ccn1` yielded an IC50 of under 0.16 µM. With `C=C(C(=O)c1ccccc1)C(C)C(=C)C(=O)c1ccccc1` the IC50 was “inactive”. `CCOC(=O)c1c(CN2CCOCC2)n(-c2ccccc2)c2cc(Br)c(O)cc12` was tested, and the IC50 was > 10 µM (inactive). `COc1ccc(NS(=O)(=O)c2ccc(O)c(NC(=O)c3cc4c(C)nn(-c5ccc(F)cc5)c4s3)c2)cc1` was tested, and the IC50 was > 10 µM (inactive). `CCCCN=c1scc(-c2ccc3c(c2)NC(=O)CO3)n1N=C1CCCC1` was tested, and the IC50 was “inactive”. For `OC(CNCC1CCCO1)Cn1c2ccc(Br)cc2c2cc(Br)ccc21` (stereo unspecified), the IC50 was > 10 µM (inactive). In the case of `CC1=C(CO)C(=O)OC([C@@H](C)C2CC[C@H]3C4C[C@H]5O[C@]56[C@@H](O)C=CC(=O)[C@]6(C)C4CC[C@]23C)C1` (stereo partly specified), the IC50 is reported as > 10 µM (inactive). `C=C(C)COc1ccc(-c2[nH]ncc2Oc2ccccc2OCC)c(O)c1` was tested, and the IC50 was “inactive”. In the case of `CNc1ccc2oc(C[C@H]3O[C@@]4(CC[C@H]3C)O[C@H]([C@H](C)C(=O)c3ccc[nH]3)[C@H](C)C[C@H]4C)nc2c1C(=O)O`, the IC50 is reported as 1.41 µM. In the case of `COc1ccc(NC(=S)NC(NC(=O)/C=C/c2ccccc2)C(Cl)(Cl)Cl)cc1` (stereo unspecified), the IC50 is reported as > 10 µM (inactive). In the case of `O=c1c(Cl)c(Cl)cnn1-c1ccccc1`, the IC50 is reported as “inactive”. Work on `Cc1ccc(/C=N/N2C(=S)SC(C)(C)C2N(O)C(=O)Nc2ccc([N+](=O)[O-])cc2)cc1` (stereo unspecified) yielded an IC50 of 3.54 µM. For `O=C(N/N=C/c1cccc(F)c1)c1c(O)c2ccccc2[nH]c1=O`, the IC50 was “inactive”. For `CCOc1ccc(/C=N/NC(=O)c2cc(-c3ccco3)nc3ccccc23)cc1`, the IC50 was “inactive”. For `C=CCn1c(CCNC(=O)c2ccc(Cl)c(Cl)c2)nnc1SCCOc1ccc(OC)cc1`, the IC50 was > 10 µM (inactive). For `Oc1ccc(Oc2ccc3c(C(F)(F)F)cc(C(F)(F)F)nc3n2)cc1`, the IC50 was > 10 µM (inactive). For `COC(=O)Oc1ccc(/C=N/NC(=O)CSCc2ccccc2Br)cc1OC`, the IC50 was > 10 µM (inactive). For `CCc1ccc(OCc2n[nH]c(=S)n2C(C)CCCC(C)C)cc1` (stereo unspecified), the IC50 was “inactive”. `N#C/C(=C\c1ccc([N+](=O)[O-])o1)c1nc2ccccc2[nH]1` gave an IC50 of 4.83 µM. For `O=C(c1nnsc1S(=O)(=O)c1ccc(Cl)cc1)N1CCOCC1`, the IC50 was “inactive”. `COc1cc(/C=C(\C#N)c2nc3ccccc3[nH]2)cc(Br)c1OCc1ccc(F)cc1` was tested, and the IC50 was “inactive”. With `O=C(Nc1ccc([N+](=O)[O-])cc1)Nc1nc(-c2ccc(Cl)s2)cs1` the IC50 was 2.53 µM. `CCN1C=CC(=C2C(=O)c3ccccc3C2=O)C=C1` was tested, and the IC50 was “inactive”. With `CCCOC(=O)c1ccc(Oc2cn[nH]c2-c2ccc(OCC)cc2O)cc1` the IC50 was “inactive”. `Cc1ccc(-c2nc(C(Cl)Cl)c3ccccc3n2)cc1` showed an IC50 of 5.22 µM. With `CC(C)(C)c1ccc(C2CC2C(=O)N/N=C\c2ccc[nH]2)cc1` (stereo unspecified) the IC50 was “inactive”. With `Cc1cc(C(=O)CCl)c(C)n1-c1cccc(S(=O)(=O)N2CCOCC2)c1` the IC50 was > 10 µM (inactive). In the case of `O=C(CN1c2ccccc2Sc2ccccc21)NNC(=O)Nc1cccc(Cl)c1`, the IC50 is reported as > 10 µM (inactive). `CCCCCCCCCCCCCCCC[n+]1ccc(/C=N/O)cc1` was tested, and the IC50 was “inactive”. With `CCCCCc1ccc(OCCOCCn2c[n+](C)c3ccccc32)c(CCCCC)c1` the IC50 was “inactive”. For `CC1=C/C(=N\OS(=O)(=O)c2ccccc2)C(C)=CC1=O`, the IC50 was 2.69 µM. For `O=C(CCl)Nc1ccc(Sc2ccc(NC(=O)CCl)cc2)cc1`, the IC50 was 4.37 µM. In the case of `Cc1cc2c(cc1C)CSC(c1c(O)ccc3ccccc13)SC2`, the IC50 is reported as > 10 µM (inactive). With `O=Cc1s/c(=N\S(=O)(=O)c2ccccc2)n(CCCCl)c1Cl` the IC50 was “inactive”. `Cn1c2ccccc2c(=O)c2c(=O)n(C3CCCCCC3)c(C3CCCCC3)nc21` was tested, and the IC50 was > 10 µM (inactive). `CC1=CC2/C=C(\C)CCC(O)C(O)/C=C/C(=O)C23C(=O)NC(CC(C)C)C3C1C` (stereo unspecified) was tested, and the IC50 was “inactive”. In the case of `Cc1cccc(N2CCN(C(=O)c3c(C)nn(Cc4ccccc4Cl)c3C)CC2)c1C`, the IC50 is reported as > 10 µM (inactive). `CCC1CCCCN1S(=O)(=O)c1ccc(C(=O)Nc2nnc(-c3ccccc3Cl)o2)cc1` (stereo unspecified) was tested, and the IC50 was “inactive”. Work on `CCCCCCCn1c(=O)c(C(=O)Nc2cnccn2)c(O)c2ccccc21` yielded an IC50 of 2.1 µM. With `CCOC(=O)c1c(N)sc(C(O)(C(F)(F)F)C(F)(F)F)c1-c1ccc(Cl)cc1` the IC50 was “inactive”. `COc1cc(/C=C2\CC/C(=C\c3cc(OC)c(O)c(OC)c3)C2=O)cc(OC)c1O` was tested, and the IC50 was “inactive”. `Cc1ccc(-c2nnc(-c3ccc(NC(=O)Cc4cccs4)cc3)o2)cc1` was tested, and the IC50 was > 10 µM (inactive). With `Cc1ccc(COc2ccc(Br)cc2/C=N/O)cc1` the IC50 was > 10 µM (inactive). For `CC(C)(C)c1ccc(O)c(N=Cc2cc(Br)ccc2O)c1`, the IC50 was “inactive”. With `Cc1ccc(NC(=O)CSc2nc3ccccc3c3nc(CCc4c(C)n[nH]c4C)nn23)cc1F` the IC50 was > 10 µM (inactive). In the case of `Cc1ccc(Cl)cc1NC1=C/C(=N\S(=O)(=O)c2cccs2)c2ccccc2C1=O`, the IC50 is reported as “inactive”. With `COC(=O)C(O)(c1ccc(NC(=S)NC(=O)c2ccc(Cl)cc2Cl)c(C)c1)C(F)(F)F` (stereo unspecified) the IC50 was > 10 µM (inactive). For `CCc1ccc(-c2cc(C(=O)N3N=C(C(F)F)CC3(O)C(F)F)c3ccccc3n2)cc1` (stereo unspecified), the IC50 was “inactive”. For `CCCCCCCCCCCCCCCCn1cc[n+](C)c1`, the IC50 was “inactive”. In the case of `NC(=S)n1[nH]c(-c2ccc([N+](=O)[O-])cc2)c(N=Nc2ccc(Cl)cc2)c1=O`, the IC50 is reported as “inactive”. Work on `CCN1/C(=C/C=C/C=C/c2sc3ccccc3[n+]2CC)Sc2ccccc21` yielded an IC50 of 2.4 µM. For `COc1cc(C)nc(N2CCCC(C(=O)Nc3cccc(Cl)c3C)C2)n1` (stereo unspecified), the IC50 was > 10 µM (inactive). For `CN1C(=O)/C(=C/c2cc(N=Nc3ccccc3)ccc2O)SC1=S`, the IC50 was “inactive”.
